Measured values published in patent publication US9107404B2, “Method for reducing undesirable effects on turfgrass” (Ishihara Sangyo Kaisha, Ltd., priority 2010, dated 2015).

Tests used:
[1] = system: bentgrass (breed: penncross); assay: Example 6: bentgrass rubbed against mascarenegrass treated with asulam plus surfactant; settings: in vivo
Description: Soil was put into a 1/300,000 ha pot, and mascarenegrass were cultivated. Further, soil was put into a 1/1,000,000 ha pot, and bentgrass (breed: penncross) was cultivated. A predetermined amount (asulam: 4625 g a.i./ha) of a treating liquid containing asulam as an active component (tradename: Arsilan liquid preparation, manufactured by Ishihara Sangyo Kaisha, Ltd.) was diluted with water containing a predetermined amount of Maku-pika (tradename, the same as in Example 1), and applied by foliar treatment to the mascarenegrass by a small spraygun so that the amount of the treating liquid corresponds to 2,000 L/ha. Upon expiration of 6 hours after the treatment, the bentgrass not treated with asulam was rubbed against the mascarenegrass treated therewith (the pot of bentgrass was permitted to slide and reciprocate once).
(§1) On 12th day after the treatment with asulam, the state of growth of the bentgrass was evaluated in the same manner as in Example 3, and the growth inhibition rate and the degree of discoloring are shown in Table 9. Further, as comparative areas, an area wherein Kusa-rino (tradename, the same as in Example 1) was used, and an area wherein no surfactant was used, were provided.

[2] = system: bentgrass (breed: Minakuru); assay: Example 4: field test, tester walked on flazasulfuron-treated mascarenegrass, then stepped on bentgrass; settings: in vivo
Description: On ground, mascarenegrass in 50 m^2 (2 m×25 m) and bentgrass (breed: Minakuru) in 0.12 m^2 (0.35 m×0.35 m) were respectively cultivated. A predetermined amount (flazasulfuron: 100 g a.i./ha) of a wettable powder containing flazasulfuron as an active ingredient (tradename: SHIBAGEN WP, manufactured by Ishihara Sangyo Kaisha, Ltd.) was diluted with water containing a predetermined amount of a silicone surfactant (tradename: Silwet L-77, manufactured by Witco) and applied by foliar treatment to the mascarenegrass by a knapsack power sprayer so that the amount of the treating liquid corresponds to 2,000 L/ha. After the treating liquid dried, a tester walked (100 m) on the mascarenegrass treated with flazasulfuron, then walked (10 m) on mascarenegrass not treated with flazasulfuron and then stepped on five times on the bentgrass.
as §1, with “11th” for “12th”, “flazasulfuron,” for “asulam,”, “7.” for “9.”

[3] = system: bentgrass (breed: penncross); assay: Example 2: tester walked on flazasulfuron-treated Japanese lawngrass, then stepped on bentgrass; settings: in vivo, 21 day
Description: Japanese lawngrass was cultivated on ground in 0.6 m^2 (0.4 m×1.5 m). Further, soil was put into a 1/300,000 ha pot, and bentgrass (breed: penncross) was cultivated. A predetermined amount (flazasulfuron: 50 g a.i./ha) of SHIBAGEN DF (tradename, the same as in Example 1) was diluted with water containing a predetermined amount of Maku-pika (tradename, the same as in Example 1) and applied by foliar treatment to the Japanese lawngrass by a small spraygun so that the amount of the treating liquid corresponds to 2,000 L/ha. Immediately after the treatment or upon expiration of 3 hours after the treatment, a tester walked (5 steps) on the Japanese lawngrass treated with flazasulfuron and then stepped on the bentgrass.
as §1, with “21st” for “12th”, “after” for “after the”, “flazasulfuron,” for “asulam,”, “1,” for “3,”, “is” for “and the degree of discoloring are”, “Tables 3 and 4.” for “Table 9.”

[4] = system: bentgrass (breed: penncross); assay: Example 10: bentgrass rubbed against mascarenegrass treated with flazasulfuron plus surfactant (Breakthru); settings: in vivo
Description: (§2) Soil was put into a 1/300,000 ha pot, and mascarenegrass was cultivated. Further, soil was put into a 1/1,000,000 ha pot, and bentgrass (breed: penncross) was cultivated. A predetermined amount (flazasulfuron: 50 g a.i./ha) of SHIBAGEN DF (tradename, the same as in Example 1) was diluted with water containing a predetermined amount of a silicone surfactant (tradename: Breakthru, manufactured by Sankei Chemical Co., Ltd.) and applied by foliar treatment to the mascarenegrass by a small spraygun, so that the amount of the treating liquid corresponds to 2,000 L/ha. Upon expiration of 6 hours after the treatment, the bentgrass not treated with flazasulfuron, was rubbed against the mascarenegrass treated therewith (the pot of bentgrass was permitted to slide and reciprocate once).
as §1, with “21st” for “12th”, “flazasulfuron,” for “asulam,”, “13.” for “9.”

[5] = system: bentgrass (breed: penncross); assay: Example 1: bentgrass pot rubbed against mascarenegrass treated with flazasulfuron plus surfactant; settings: in vivo
Description: Soil was put into a 1/300,000 ha pot, and mascarenegrass was cultivated. Further, soil was put into a 1/1,000,000 ha pot, and bentgrass (breed: penncross) was cultivated. A predetermined amount (flazasulfuron: 50 g a.i./ha) of water dispersible granules (tradename: SHIBAGEN DF, manufactured by Ishihara Sangyo Kaisha, Ltd.) containing flazasulfuron as an active ingredient, was diluted with water containing a predetermined amount of a silicone surfactant (tradename: Maku-pika, manufactured by Ishihara Sangyo Kaisha, Ltd.) and applied by foliar treatment to the mascarenegrass by a small spraygun so that the amount of the treating liquid corresponds to 2,000 L/ha. Immediately after the treatment or upon expiration of 6 hours after the treatment, the bentgrass not treated with flazasulfuron was rubbed against the mascarenegrass treated with flazasulfuron (the pot of bentgrass was permitted to slide and reciprocate once).
On 14th day after the treatment with flazasulfuron, the state of growth of the bentgrass was visually observed and investigated, and the growth inhibition rate and the degree of necrosis evaluated in accordance with the following standards are shown in Tables 1 and 2. […]

[6] = system: bentgrass (breed: penncross); assay: Example 7: bentgrass rubbed against mascarenegrass treated with rimsulfuron plus surfactant; settings: in vivo
Description: as §2, with “(rimsulfuron: 35.25” for “(flazasulfuron: 50”, “water dispersible granules containing rimsulfuron” for “SHIBAGEN DF (tradename, the same”, “an active ingredient (tradename: Hurley DF, manufactured by MARUWA Biochemical Co., Ltd.)” for “in Example 1)”, “Maku-pika (tradename, the same as in Example 1)” for “a silicone surfactant (tradename: Breakthru, manufactured by Sankei Chemical Co., Ltd.)”, “rimsulfuron” for “flazasulfuron,”
as §1, with “13th” for “12th”, “rimsulfuron,” for “asulam,”, “10.” for “9.”, “1) or Surfactant WK (tradename, manufactured by MARUWA Biochemical Co., Ltd.)” for “1)”

[7] = system: bentgrass (breed: penncross); assay: Example 5: bentgrass rubbed against mascarenegrass treated with trifloxysulfuron sodium salt plus surfactant; format: in vivo; settings: trifloxysulfuron sodium salt 45 g a.i./ha, spreading agent not added, rubbed 6 hours after treatment, 12th day
Description: Soil was put into a 1/300,000 ha pot, and mascarenegrass was cultivated. Further, soil was put into a 1/1,000,000 ha pot, and bentgrass (breed: penncross) was cultivated. A predetermined amount (trifloxysulfuron sodium salt: 45 g a.i./ha) of water dispersible granules containing trifloxysulfuron sodium salt as an active ingredient (tradename: Monument water dispersible granules, manufactured by Syngenta Japan K.K.) was diluted with water containing a predetermined amount of Maku-pika (tradename, the same as in Example 1) and applied by foliar treatment to the mascarenegrass by a small spraygun, so that the amount of the treating liquid corresponds to 2,000 L/ha. Upon expiration of 6 hours after the treatment, the bentgrass not treated with trifloxysulfuron sodium salt, was rubbed against the mascarenegrass treated therewith (the pot of bentgrass was permitted to slide and reciprocate once).
as §1, with “trifloxysulfuron sodium salt,” for “asulam,”, “8.” for “9.”

`COC(=O)NS(=O)(=O)c1ccc(N)cc1` [asulam] was tested, and the “Bentgrass Discoloring” value [1] was 2.5 and the “Bentgrass Growth inhibition rate” value ([1]; penncross, bentgrass, 12 day) was 45%.
With `COc1cc(OC)nc(NC(=O)NS(=O)(=O)c2ncccc2C(F)(F)F)n1` [flazasulfuron] the “Bentgrass Growth inhibition rate (%)” value ([2]; Minakuru, bentgrass, 11 day) was 28%, the “Bentgrass Discoloring” value [2] was 1.0 and the “Bentgrass Growth inhibition rate (%)” value [3] was 30%. The “Bentgrass Discoloring” value [4] was 0.5, the “Bentgrass Growth inhibition rate” value ([4]; penncross, bentgrass, 21 day) was 57% and the “Bentgrass Necrosis” value [5] was 0.8. The “Bentgrass Growth inhibition rate (%)” value ([5]; penncross, bentgrass, 14 day) was 48%.
In the case of `CCS(=O)(=O)c1cccnc1S(=O)(=O)NC(=O)Nc1nc(OC)cc(OC)n1` [rimsulfuron], the “Bentgrass Discoloring” value [6] is reported as 1.0 and the “Bentgrass Growth inhibition rate” value ([6]; penncross, bentgrass, 13 day) is reported as 35%.
For `COc1cc(OC)nc(NC(=O)[N-]S(=O)(=O)c2ncccc2OCC(F)(F)F)n1.[Na+]` [trifloxysulfuron sodium salt], the “Bentgrass Growth inhibition rate” value [7] was 60% and the “Bentgrass Discoloring” value ([7]; degree 0-5.0) was 1.5.
